Holding throughout (format): cell-based, human
One test concerns BxPC3 cells. Kind of test: Viability assay (CellTiter Blue), BxPC3 cells, hypoxia vs normoxia. The settings on record: for Index [3] Selectivity index (IC50 [2]/IC50 [1]): BxPC3, normoxic IC50 / hypoxic IC50. As for the experimental part: (§1) PANC-1 and HaCat cells (PANC-1: RRID:CVCL 0480, taken from a person, HaCat: RRID:CVCL 0038) were cultured in DMEM (Gibco, Cat #: 21969-035) supplemented with FBS (10%, Gibco, Cat #: A31698-02), Penicillin/Streptomycin (1%, Sigma-Aldrich, Cat #: P0781), and Ala-Gln (200 μM, Sigma-Aldrich, Cat #: G8541). BxPC3 cells (RRID:CVCL 0186, taken from a person) were cultured in RPMI 1640 (Gibco, Cat #: 61870-010) supplemented with FBS (10%) and Penicillin/Streptomycin (1%). U2OS (RRID:CVCL 0042) and HCT116 cells (RRID:CVCL 0291, ATCC CCL-247) were cultured in McCoy's 5A (Sigma cat. no. M9309) supplemented with FBS (10%) and Penicillin/Streptomycin (1%). Cells were grown under normoxic conditions in T75 flasks (Biolite, Thermo Scientific, Cat #: 130190) in a humidified atmosphere with 5% CO2 at 37° C. For hypoxic conditions cells were placed in a modular incubator chamber (MIC-101, Billups-Rothenberg) equipped with a 10-cm dish with milliQ water and flushed with CO2/N2 (5%/95%, BioNERT, AGA Cat #: 100466065) for 8 minutes at 20-25 L/minute. Cells were passaged approximately every third day by trypsination (Sigma-Aldrich, Cat #: T4049) followed by transfer of ⅕^th of the cells to a new flask. All cell cultures were handled aseptically in a laminar air flow bench and grown in sterile-filtered (Jetbiofil, Cat #: FPE204500) medium according to ATCC's recommendations. All human cell lines were correctly identified by short tandem repeat analysis and tested free of mycoplasma contamination by MycoAlert (Lonza, Cat #: LT07-218).
(§2) Cells were seeded in black 96-well plates (2000 cells/well, 75 μL/well, ThermoFisher Scientific, Cat #: 137103) in complete medium. Subsequently, the cells were allowed to adhere to the substratum overnight. The next day, compounds were serially diluted in DMSO as 200× solutions. The 200× solutions of compounds were initially diluted in complete medium to 4× solutions containing 2% DMSO. Finally, the compounds were given to cells by the addition of 25 μL/well in triplicates resulting in 1× solutions of compounds in 100 μL/well. The cells were then incubated under either normoxia or hypoxia. 90 minutes before the end of the experiment, all cells were given CellTiter Blue (20 μL/well, Promega, Cat #: G8080) and reincubated under normoxia for the remaining time of the experiment. The viability of the cells was assessed by measuring fluorescence in a plate reader (ex/em: 552±10/598±10, Tecan Spark 10M). Data were normalized to the two lowest concentrations of compound and fitted to a 4-parameter nonlinear regression in Prism 7.04 for Windows, GraphPad Software, La Jolla Calif. USA. IC50 values were extrapolated as the X value at Y=50%. Results can be found in Table 1 and the corresponding dose-response curves seen in FIGS. 12 to 17 and in FIGS. 9 to 10.
(In general: Alamar Blue is a resazurin reagent that responds to reducing activity.)

The next test concerns PANC-1 cells. Put plainly: Viability assay (CellTiter Blue), PANC-1 cells, hypoxia vs normoxia. The settings on record: for Index [3] Selectivity index (IC50 [2]/IC50 [1]): PANC1, normoxic IC50 / hypoxic IC50. On the procedure: as §1, §2
Another test deals with HCT116 cells. Kind of test: Viability assay (CellTiter Blue), HCT116 cells, hypoxia vs normoxia. The settings on record: for Index [3] Selectivity index (IC50 [2]/IC50 [1]): HCT116, normoxic IC50 / hypoxic IC50. As for the experimental part:
as §1, §2

Where [1] appears, read: BxPC3, hypoxic conditions, read-out: IC50 (μM) [1].
Setting [2] is: BxPC3, normoxic conditions, read-out: IC50 (μM) [2].
Where [3] appears, read: PANC1, hypoxic conditions, read-out: IC50 (μM) [1].
The mark [4] stands for this setting: PANC1, normoxic conditions, read-out: IC50 (μM) [2].
Where [5] appears, read: HCT116, hypoxic conditions, read-out: IC50 (μM) [1].
The mark [6] stands for this setting: HCT116, normoxic conditions, read-out: IC50 (μM) [2].

Where two headings read alike, the source gives them in different places.

By IC50 is commonly meant the concentration that gives 50% inhibition. As to `C=C1/C=C/C(=O)N(C)CC(=O)N2CCC[C@H]2COc2cc(CCCCCCCCCCCC)ccc2C(=O)N1` [PH921, (S,E)-16-dodecyl-7-methyl-11-methylene-2,3,6,7,11,12,19,19a-octahydro-1H,5H-benzo[n]pyrrolo[2,1-c][1]oxa[4,7,12]triazacyclo-pentadecine-5,8,13-trione], the IC50 came to 6 µM in the test on BxPC3 cells (setting [1]); 12.3 µM in the test on BxPC3 cells (setting [2]); 2.6 µM with PANC-1 cells (setting [3]); 13.7 µM in the test on PANC-1 cells (setting [4]); 2.6 µM in the test on HCT116 cells (setting [5]); 8.4 µM in the test with HCT116 cells (setting [6]). Also, the “Index [3] Selectivity index (IC50 [2]/IC50 [1])” value (from here on “Index [3] Selectivity index”) in the test with BxPC3 cells turned out to be 2.1; with PANC-1 cells, 5.3; in the test on HCT116 cells it was 3.3.
With `C=C1/C=C/C(=O)N(C)CC(=O)N[C@@H](CC(=O)NC2CC2)COc2cc(CCCCCCCCCCCC)ccc2C(=O)N1` [PH906, (S,E)-N-cyclopropyl-2-(16-dodecyl-7-methyl-11-methylene-5,8,13-trioxo-2,3,4,5,6,7,8,11,12,13-decahydrobenzo[n][1]oxa[4,7,12]-triazacyclopentadecin-3-yl)acetamide], the IC50 in the test with PANC-1 cells (setting [3]) was 2.3 µM; in the test with PANC-1 cells (setting [4]) it was greater than 28 µM; with HCT116 cells (setting [5]) it was 1.4 µM; with HCT116 cells (setting [6]), greater than 28 µM. In addition, the “Index [3] Selectivity index” value in the test on PANC-1 cells is greater than 12.1; in the test with HCT116 cells, greater than 20.7.
Turning to `Cn1c(COP(=O)(NCCBr)NCCBr)cnc1[N+](=O)[O-]` [TH302, Evofosfamide, reference compound], the entries for the “Index [3] Selectivity index” value in the test on BxPC3 cells, in the test with PANC-1 cells and with HCT116 cells were 3.4, 7.2 and 6.9, respectively. Besides, the IC50 is 21 µM with BxPC3 cells (Homo sapiens, BXPC-3, BxPC3, hypoxic conditions, read-out: IC50 (μM) [1]); 71 µM in the test with BxPC3 cells (Homo sapiens, BXPC-3, BxPC3, normoxic conditions, read-out: IC50 (μM) [2]); 9.4 µM with PANC-1 cells (Homo sapiens, PANC-1, PANC1, hypoxic conditions, read-out: IC50 (μM) [1]); 69 µM in the test on PANC-1 cells (Homo sapiens, PANC-1, PANC1, normoxic conditions, read-out: IC50 (μM) [2]); 6.2 µM with HCT116 cells (Homo sapiens, HCT-116, HCT116, hypoxic conditions, read-out: IC50 (μM) [1]); 43 µM with HCT116 cells (Homo sapiens, HCT-116, HCT116, normoxic conditions, read-out: IC50 (μM) [2]).
Regarding `C#CCNC(=O)C[C@H]1COc2cc(CCCCCCCCCCCC)ccc2C(=O)NC(=C)/C=C/C(=O)N(C)CC(=O)N1` [PH845, (S,E)-2-(16-dodecyl-7-methyl-11-methylene-5,8,13-trioxo-2,3,4,5,6,7,8,11,12,13-decahydrobenzo[n][1]oxa[4,7,12]-triazacyclopentadecin-3-yl)-N-(prop-2-yn-1-yl)acetamide], the IC50 in the test with PANC-1 cells (setting [3]) was 3.1 µM; with PANC-1 cells (setting [4]), greater than 50 µM; in the test on HCT116 cells (setting [5]), 4.2 µM; with HCT116 cells (setting [6]) it was greater than 50 µM. The “Index [3] Selectivity index” value was greater than 16.4 in the test on PANC-1 cells and greater than 12.4 with HCT116 cells.
`C=C1/C=C/C(=O)N(C)CC(=O)N2CC(F)(F)C[C@H]2COc2cc(CCCCCCCCCCCC)ccc2C(=O)N1` [PH905, (S,E)-16-dodecyl-2,2-difluoro-7-methyl-11-methylene-2,3,6,7,11,12,19,19a-octahydro-1H,5H-benzo[n]pyrrolo[2,1-c][1]oxa-[4,7,12]triazacyclopentadecine-5,8,13-trione]: the IC50 with BxPC3 cells (setting [1]) amounted to 5.5 µM; in the test with BxPC3 cells (setting [2]), 6.3 µM; in the test with PANC-1 cells (setting [3]), 5.4 µM; in the test on PANC-1 cells (setting [4]) it was 5.8 µM; in the test with HCT116 cells (setting [5]), 3.7 µM; in the test with HCT116 cells (setting [6]) it was 3.5 µM. Besides, the “Index [3] Selectivity index” value with BxPC3 cells is on record as 1.1; in the test with PANC-1 cells, 1.1; with HCT116 cells, 1.0.
Take `CCCCCCCCCCCCc1ccc2c(c1)OC[C@H](CCCCNC(=O)OC(C)(C)C)NC(=O)CN(C)C(=O)/C=C/[C@H](CO)NC2=O` [PH908, tert-butyl (4-((3S,11R,E)-16-dodecyl-11-(hydroxymethyl)-7-methyl-5,8,13-trioxo-2,3,4,5,6,7,8,11,12,13-decahydrobenzo[n][1]oxa-[4,7,12]triazacyclopentadecin-3-yl)butyl)carbamate]: the IC50 with BxPC3 cells (setting [1]) was greater than 50 µM; with BxPC3 cells (setting [2]), greater than 50 µM; in the test with PANC-1 cells (setting [3]) it was greater than 50 µM; with PANC-1 cells (setting [4]), greater than 50 µM; in the test on HCT116 cells (setting [5]) it was 14.7 µM; in the test on HCT116 cells (setting [6]), 17.4 µM. In addition, the “Index [3] Selectivity index” value in the test with HCT116 cells is reported as 1.2.
For `C=C1/C=C/C(=O)N(C)CC(=O)N[C@@H](CC(=O)N2CCOCC2)COc2cc(CCCCCCCCCCCC)ccc2C(=O)N1` [PH741, (S,E)-16-dodecyl-7-methyl-11-methylene-3-(2-morpholino-2-oxoethyl)-3,4,6,7,11,12-hexahydrobenzo[n][1]oxa[4,7,12]triazacyclopentadecine-5,8,13(2H)-trione], the half-maximal inhibitory concentration (IC50) with PANC-1 cells (setting [3]) was 7.8 µM; with PANC-1 cells (setting [4]), 16.3 µM; in the test with HCT116 cells (setting [5]), 3.3 µM; in the test with HCT116 cells (setting [6]), 16.2 µM. Further, the “Index [3] Selectivity index” value with PANC-1 cells is listed as 2.1; in the test with HCT116 cells, 4.9.
With `C=C1/C=C/C(=O)N(C)CC(=O)N[C@@H](CC(=O)OC)COc2cc(CCCCCCCCCCCC)ccc2C(=O)N1` [PH832, Methyl (S,E)-2-(16-dodecyl-7-methyl-11-methylene-5,8,13-trioxo-2,3,4,5,6,7,8,11,12,13-decahydrobenzo[n][1]oxa[4,7,12]-triazacyclopentadecin-3-yl)acetate], the IC50 turned out to be 4.3 µM in the test on PANC-1 cells (setting [3]), 23.3 µM in the test with PANC-1 cells (setting [4]), 5 µM with HCT116 cells (setting [5]) and 5.6 µM in the test on HCT116 cells (setting [6]). The “Index [3] Selectivity index” value with PANC-1 cells is listed as 5.4; in the test on HCT116 cells, 1.1.
With `CCCCCCCCCCCCc1ccc2c(c1)OC[C@H](CC(=O)OC)NC(=O)CN(C)C(=O)/C=C/[C@H](CO)NC2=O` [PH830, Methyl 2-((3S,11R,E)-16-dodecyl-11-(hydroxymethyl)-7-methyl-5,8,13-trioxo-2,3,4,5,6,7,8,11,12,13-decahydrobenzo[n][1]oxa[4,7,12]-triazacyclopentadecin-3-yl)acetate], the IC50 in the test with BxPC3 cells (setting [1]), in the test with BxPC3 cells (setting [2]), with PANC-1 cells (setting [3]), in the test with PANC-1 cells (setting [4]), in the test with HCT116 cells (setting [5]) and with HCT116 cells (setting [6]) was greater than 50 µM throughout.
For `CCCCCCCCCCCCc1ccc2c(c1)OCCNC(=O)CN(C)C(=O)/C=C/C(CO)NC2=O` (stereo not shown) [PH462, (E)-16-dodecyl-11-(hydroxymethyl)-7-methyl-3,4,6,7,11,12-hexahydro-benzo[n][1]oxa[4,7,12]triazacyclopentadecine-5,8,13(2H)-trione], the half-maximal inhibitory concentration (IC50) in the test with BxPC3 cells (setting [1]), in the test on BxPC3 cells (setting [2]), in the test with PANC-1 cells (setting [3]), with PANC-1 cells (setting [4]), with HCT116 cells (setting [5]) and in the test on HCT116 cells (setting [6]) was greater than 50 µM each time.

For the origin of these results see patent US12415789B2, “Macrocycles comprising a 4-amido-2,4-pentadienoate moiety for the treatment of hypoxic cancers” (Aarhus Universitet, priority 2019, dated 2025).
